One block for each molecule: values may come before it.
Tests used:
Settings in all cases: stereoisomer not certain
[1] = RP, 100 × 0.5 mm, 2.7 µm, 45 °C, 0.015 mL/min, estimated dead time 0.83 min; A: water + 0.9% formic acid; B: acetonitrile + 0.9% formic acid; gradient (min/%B) 0/1 0.5/1 4/95 4.5/1 5/1
[2] = RP, Phenomenex Luna Omega Polar C18, 100 × 2.1 mm, 1.6 µm, 40 °C, 0.5 mL/min, estimated dead time 0.44 min; A: water + 0.5% formic acid; B: acetonitrile + 0.5% formic acid; gradient (min/%B) 0/5 3/50 3.1/100 5/100 5.1/5 7/5
[3] = RP, Agilent ZORBAX Eclipse XDB-C18, 100 × 2.1 mm, 1.8 µm, 50 °C, 0.4 mL/min, estimated dead time 0.55 min; A: water + 0.1% formic acid, pH 3; B: methanol + 0.1% formic acid, pH 3; gradient (min/%B) 0/2 10/100 14.5/100 14.51/2 16.5/2
[4] = RP, 50 × 0.5 mm, 2.7 µm, 35 °C, 0.01 mL/min, estimated dead time 0.62 min; A: water + 0.1% formic acid, pH 3; B: acetonitrile + 0.1% formic acid, pH 3; gradient (min/%B) 0/5 12/95 14/95 16/5
[5] = RP, Phenomenex Synergi Hydro-RP, 150 × 2 mm, 4 µm, 30 °C, 0.5 mL/min, estimated dead time 0.6 min; A: water + 0.1% formic acid, pH 3; B: acetonitrile + 0.1% formic acid, pH 3; gradient (min/%B) 0/5 1/5 35/45 40/100 45/100
[6] = RP, Merck Supelco SUPELCOSIL LC-C18, 250 × 4.6 mm, 5 µm, 40 °C, 1 mL/min, estimated dead time 2.6 min; A: water + 0.1% trifluoroacetic acid, pH 2; B: acetonitrile + 0.1% trifluoroacetic acid, pH 2; gradient (min/%B) 0/5 45/35 47/75 49/35 50/5
[7] = RP, Waters ACQUITY UPLC BEH Shield RP18, 100 × 2.1 mm, 1.7 µm, 30 °C, 0.6 mL/min, estimated dead time 0.37 min; A: water + 0.1% formic acid, pH 3; B: acetonitrile + 0.1% formic acid, pH 3; gradient (min/%B) 0/0 2/0 7/10 22/95 22.1/0 26/0
[8] = RP, Phenomenex Luna C18, 150 × 4.6 mm, 3 µm, 25 °C, 0.5 mL/min, estimated dead time 3.2 min; A: water + 0.1% formic acid, pH 3; B: acetonitrile + 0.1% formic acid, pH 3; gradient (min/%B) 0/0 30/30 35/40 50/80 52/80 60/0 65/0
[9] = RP, Phenomenex Luna Omega Polar C18, 100 × 2.1 mm, 1.6 µm, 40 °C, 0.5 mL/min, estimated dead time 0.44 min; A: water + 0.1% formic acid + 10 mM ammonium formate; B: acetonitrile; gradient (min/%B) 0/5 8/20 10/100 12/100 12.1/5 14/5
[10] = Other, Phenomenex Kinetex PFP, 100 × 4.6 mm, 2.6 µm, 35 °C, 1.5 mL/min, estimated dead time 0.71 min; A: water + 0.1% trifluoroacetic acid, pH 2; B: acetonitrile + 0.1% trifluoroacetic acid, pH 2; gradient (min/%B) 0/1 7/7.5 14/7.6 17/10 18.5/12 20/12.5 24/30 25/90 25.1/1 32/1
[11] = RP, Phenomenex Synergi Hydro-RP, 250 × 2 mm, 4 µm, 25 °C, 0.2 mL/min, estimated dead time 2.5 min; A: water + 0.1% formic acid, pH 3; B: acetonitrile + 0.1% formic acid, pH 3; gradient (min/%B) 0/0.5 7/0.5 12/12.5 25/16.3 47/35 48/65 50/65 50.1/0.5
[12] = RP, Agilent ZORBAX RRHD Eclipse Plus C18, 50 × 2.1 mm, 1.8 µm, 30 °C, 0.4 mL/min, estimated dead time 0.28 min; A: water + 0.1% formic acid, pH 3; B: acetonitrile + 0.1% formic acid, pH 3; gradient (min/%B) 0/1 5/10 8/25 9.1/99 10/99 12/99
[13] = RP, Agilent ZORBAX RRHD Eclipse Plus C18, 50 × 2.1 mm, 1.8 µm, 30 °C, 0.4 mL/min, estimated dead time 0.28 min; A: water + 0.1% formic acid, pH 3; B: acetonitrile + 0.1% formic acid, pH 3; gradient (min/%B) 0/1 5/10 8/25 9.1/99 10/99 12/1
[14] = RP, 150 × 2.1 mm, 2.6 µm, 40 °C, 0.35 mL/min, estimated dead time 0.94 min; A: water + 0.1% formic acid, pH 3; B: acetonitrile + 0.1% formic acid, pH 3; gradient (min/%B) 0/0 1/5 7/45 8.5/80 10.5/80 11/5 12/5
[15] = RP, 150 × 2.1 mm, 2.6 µm, 40 °C, 0.35 mL/min, estimated dead time 0.94 min; A: water + 0.1% formic acid, pH 3; B: acetonitrile + 0.1% formic acid, pH 3; gradient (min/%B) 0/0 1/0 12.5/100 14/100 14.2/0 15/0
[16] = Other, Phenomenex Kinetex PFP, 100 × 4.6 mm, 5 µm, 45 °C, 0.6 mL/min, estimated dead time 1.8 min; A: water + 0.1% trifluoroacetic acid, pH 2; B: methanol; gradient (min/%B) 0/40 20/72 21/40
[17] = RP, Agilent InfinityLab Poroshell 120 EC-C18, 100 × 3 mm, 2.7 µm, 25 °C, 0.4 mL/min, estimated dead time 1.1 min; A: water + 0.1% formic acid, pH 3; B: acetonitrile + 0.1% formic acid, pH 3; gradient (min/%B) 0/5 10/25 20/40 24/90 25/90 26/5 30/5
[18] = RP, Waters Atlantis T3, 100 × 2.1 mm, 3 µm, 40 °C, 0.3 mL/min, estimated dead time 0.73 min; A: water + 0.1% trifluoroacetic acid, pH 2; B: acetonitrile + 0.1% trifluoroacetic acid, pH 2; gradient (min/%B) 0/10 1/10 6/40 7/50 8/50 14/70 16/80 20/10 25/10
[19] = RP, Waters ACQUITY UPLC BEH Shield RP18, 150 × 2.1 mm, 1.7 µm, 40 °C, 0.4 mL/min, estimated dead time 0.83 min; A: water + 0.1% formic acid, pH 3; B: acetonitrile + 0.1% formic acid, pH 3; gradient (min/%B) 0/0 30/50 31/100 37/100 37.1/0
[20] = RP, Waters ACQUITY UPLC HSS T3, 100 × 2.1 mm, 1.8 µm, 30 °C, 0.4 mL/min, estimated dead time 0.55 min; A: water + 0.1% formic acid, pH 3; B: acetonitrile + 0.1% formic acid, pH 3; gradient (min/%B) 0/0 2/0 15/100 22/100 22.1/0 26/0
[21] = RP, Waters ACQUITY UPLC BEH C18, 100 × 2.1 mm, 1.7 µm, 65 °C, 0.4 mL/min, estimated dead time 0.55 min; A: water + 0.1% formic acid, pH 3; B: 80% acetonitrile + 20% acetone + 0.1% formic acid, pH 3; gradient (min/%B) 0/0 5/100 5.5/0 6/0
[22] = RP, Waters ACQUITY UPLC HSS T3, 100 × 2.1 mm, 50 °C; A: water + 0.1% formic acid, pH 3; B: 30% methanol + 70% acetonitrile + 0.1% formic acid, pH 3; gradient (min/%B) 0/5 1/8 2/15 3/40 4/70 4.5/100 5/100 6.4/100 6.6/5 6.8/5 7/5
[23] = RP, Merck LiChrospher RP-18, 250 × 4 mm, 5 µm, 35 °C, 0.3 mL/min, estimated dead time 6.7 min; A: water + 0.5% formic acid; B: acetonitrile + 0.5% formic acid; gradient (min/%B) 0/5 10/5 30/15 45/20 65/20 95/54 110/63 115/5 135/5

SMILES: Oc1cc(O)c2c(c1)OC(c1ccc(O)c(O)c1)C(O)C2 (single isomer, unassigned; (-)) [(-)-Epicatechin]
LC retention time [1]: 2.32 min
LC retention time [2]: 1.99 min
LC retention time [3]: 3.7 min
LC retention time [4]: 3.43 min
LC retention time [5]: 11.3 min
LC retention time [6]: 16.8 min
LC retention time [7]: 11.5 min
LC retention time [8]: 15.9 min
LC retention time [9]: 4.95 min

SMILES: O=Cc1ccc(O)cc1O [2,4-dihydroxybenzaldehyde]
LC retention time [10]: 14.7 min

SMILES: O=C(O)c1cc(O)cc(O)c1 [3,5-Dihydroxybenzoic acid]
LC retention time [10]: 4.93 min
LC retention time [12]: 2.82 min
LC retention time [13]: 4.25 min

SMILES: Cc1cccc(C(=O)NCC(=O)O)c1 [3-methylhippuric acid]
LC retention time [10]: 14.8 min

SMILES: COc1cccc(O)c1C(=O)O [6-Methoxysalicyclic acid]
LC retention time [10]: 22.1 min

SMILES: O=c1ccc2ccc(O)c(O)c2o1 [7,8-Dihydroxycoumarin]
LC retention time [10]: 12 min
LC retention time [14]: 4.64 min
LC retention time [15]: 4.84 min
LC retention time [13]: 6.14 min

SMILES: O=C(C=Cc1ccc(O)c(O)c1)OC(Cc1ccc(O)c(O)c1)C(=O)O (centres undefined) [Rosmarinic acid]
LC retention time [18]: 8.18 min
LC retention time [1]: 2.28 min
LC retention time [19]: 14.6 min
LC retention time [20]: 9.87 min
LC retention time [3]: 5.41 min
LC retention time [4]: 4.8 min
LC retention time [16]: 9.57 min
LC retention time [5]: 18.4 min
LC retention time [6]: 31 min
LC retention time [7]: 13.7 min
LC retention time [17]: 11.5 min
LC retention time [11]: 39.2 min
LC retention time [8]: 30 min
LC retention time [9]: 8.46 min
LC retention time [23]: 79.8 min

SMILES: COc1cc2ccc(=O)oc2cc1O [Scopoletin]
LC retention time [10]: 20.4 min
LC retention time [14]: 5.8 min
LC retention time [15]: 5.86 min

SMILES: COc1ccc(C(=O)O)cc1 [p-anisic acid]
LC retention time [10]: 20.6 min
LC retention time [11]: 39.1 min

The next lines start with the values.

LC retention time [10]: 9.72 min
LC retention time [11]: 15.9 min
SMILES: O=C(O)c1c(O)cc(O)cc1O [2,4,6-trihydroxybenzoic acid]

LC retention time [10]: 14.5 min
SMILES: Cc1ccc(C(=O)NCC(=O)O)cc1 [4-methylhippuric acid]

LC retention time [1]: 3.19 min
LC retention time [2]: 3.17 min
LC retention time [3]: 3.52 min
LC retention time [16]: 10.8 min
LC retention time [6]: 29.1 min
LC retention time [17]: 5.63 min
SMILES: Oc1cc(O)c2cc(O)c(-c3ccc(O)c(O)c3)[o+]c2c1 [Cyanidin]

LC retention time [18]: 10.2 min
LC retention time [1]: 3.2 min
LC retention time [2]: 3.7 min
LC retention time [19]: 24.5 min
LC retention time [20]: 11.6 min
LC retention time [3]: 6.86 min
LC retention time [4]: 6.31 min
LC retention time [5]: 26.7 min
LC retention time [6]: 43.8 min
LC retention time [21]: 3.02 min
LC retention time [7]: 16.6 min
LC retention time [17]: 14.1 min
LC retention time [12]: 9.29 min
LC retention time [22]: 3.88 min
LC retention time [13]: 9.16 min
LC retention time [11]: 52.3 min
LC retention time [8]: 37.7 min
LC retention time [9]: 9.66 min
LC retention time [23]: 97.6 min
SMILES: O=c1c(O)c(-c2ccc(O)cc2)oc2cc(O)cc(O)c12 [Kaempferol]

LC retention time [10]: 1.52 min
SMILES: O=C(O)CC(=O)O [Malonic acid]

LC retention time [10]: 8.64 min
SMILES: COC(=O)c1cc(O)c(O)c(O)c1 [Methyl 3,4,5-trihydroxybenzoate]

LC retention time [10]: 15.3 min
SMILES: COC(=O)c1ccc(O)c(O)c1 [Methyl 3,4-dihydroxybenzoate]

LC retention time [3]: 5.37 min
LC retention time [10]: 23 min
SMILES: COC(=O)c1ccc(O)c(OC)c1 [Methyl vanillate]

LC retention time [10]: 18.5 min
LC retention time [11]: 27.6 min
SMILES: O=Cc1c(O)cc(O)cc1O [Phloroglucinol aldehyde]

LC retention time [1]: 2.88 min
LC retention time [2]: 2.96 min
LC retention time [19]: 17.9 min
LC retention time [20]: 10.4 min
LC retention time [3]: 5.24 min
LC retention time [4]: 5.18 min
LC retention time [16]: 10.8 min
LC retention time [5]: 20 min
LC retention time [6]: 31.6 min
LC retention time [21]: 2.48 min
LC retention time [7]: 14.7 min
LC retention time [17]: 14.7 min
LC retention time [8]: 38.8 min
LC retention time [9]: 9.3 min
LC retention time [23]: 85.7 min
SMILES: Oc1ccc(C=Cc2cc(O)cc(O)c2)cc1 [Resveratrol]
